Each structure is given as a SMILES string.

This assay relates to Sarcoma-180 (S-180) tumor. The settings on record: 20 mg/kg bw i.p. The procedure: The S-180 cells were collected from Swiss albino mice harboring 8–10 days old cells from the peritoneal cavity. On day 0, the S-180 cells (1 × 10^7 cells/ml) were injected intra-peritoneal in non-inbred female Swiss albino mice (22–25 g, 8–10 weeks old) selected for the experiment. The next day (Day 1), the animals were randomized and divided into three treatment groups, one positive control group and one vehicle control group containing 5 animals in each group. […] The fourth group was given 5-fluorouracil; positive control at a dose of 20 mg/kg bw i.p. from day 1–9, and the fifth group (control) was administered normal saline (0.2 ml i.p.) for 9 days. On day 12, the animals were sacrificed, and the fluid was collected from each mouse's peritoneal cavity to evaluate tumor growth ([43]). The tumor growth inhibition was calculated using the following formula.
Tumor Growth Inhibition(%)=(Number of tumor cells in control group-Number of tumor cells in the test group)/Number of tumor cells in the control group×100

[1] abbreviates: days 1-9, evaluated day 12, n = 5.

As to `O=c1[nH]cc(F)c(=O)[nH]1` [5 FU, 5-fluorouracil, reference compound], where the note is “days 1-9, evaluated day 12”, the Tumor growth inhibition stood at 93.75%. Under setting [1], the “Tumor cell count Mean ± S.E” value is reported as 5 ± 0.28^*** 1 × 10^7, the “Tumor volume Mean ± S.E” value was determined as 0.16 ± 0.01 mL and the “Tumor weight Mean ± S.E” value is 0.16 ± 0.01 g.

The values are drawn from PMC9028219 (Frontiers in Nutrition, 2022).
